Test results as given in US8410026B2, “Pyridazine fungicides” (Syngenta Crop Protection LLC, priority 2008, dated 2013).

Experiments:
Alternaria solani = Alternaria solani / tomato / preventive (action against Alternaria on tomato); assay type: in vivo; conditions: preventive spray, tomato plants cv. Roter Gnom, inoculated 2 days after application, assessed after 4 days incubation, read-out: inhibit fungal infestation
Experimental: (§1) Alternaria solani/Tomato/Preventive (Action Against Alternaria on Tomato) 4 weeks old tomato plants cv. Roter Gnom are treated with the formulated test compound in a spray chamber. Two days after application tomato plants are inoculated by spraying a spore suspension on the test plants. After an incubation period of 4 days at 22° C./18° C. and 95% r. h. in a greenhouse the disease incidence is assessed.

[1] = tested on: Botryotinia fuckeliana (Botrytis cinerea); assay: Botryotinia fuckeliana (Botrytis cinerea) / tomato / preventive (action against Botrytis on tomato); assay type: in vivo; conditions: preventive spray, tomato plants cv. Roter Gnom, inoculated 2 days after application, assessed after 3 days incubation, read-out: inhibit fungal infestation
Experimental: as §1, with “Botryotinia fuckeliana (Botrytis cinerea)/Tomato/Preventive (Action” for “Alternaria solani/Tomato/Preventive (Action”, “Against Botrytis” for “Against Alternaria”, “of 3” for “of 4”, “at 20°” for “at 22° C./18°”

[2] = tested on: Puccinia recondite f. sp. tritici; assay: Puccinia recondite f. sp. tritici / wheat / preventive (action against brown rust on wheat); assay type: in vivo; conditions: preventive spray, wheat plants cv. Arina, inoculated 1 day after application, assessed 11 days after inoculation, read-out: inhibit fungal infestation
Experimental: Puccinia recondite f. sp. tritici/Wheat/Preventive (Action Against Brown Rust on Wheat) 1 week old wheat plants cv. Arina are treated with the formulated test compound in a spray chamber. One day after application wheat plants are inoculated by spraying a spore suspension (1×105 uredospores/ml) on the test plants. After an incubation period of 1 day at 20° C. and 95% r. h. plants are kept for 10 days 20° C./18° C. (day/night) and 60% r. h. in a greenhouse. The disease incidence is assessed 11 days after inoculation.

[3] = tested on: Magnaporthe qrisea (Pyricularia oryzae); assay: whole plant or invertebrate; assay type: in vivo; conditions: read-out: inhibit fungal infestation
[4] = tested on: Pyrenophora teres (Helminthosporium teres); assay: Pyrenophora teres (Helminthosporium teres) / barley / preventive (action against net blotch on barley); assay type: in vivo; conditions: preventive spray, barley plants cv. Regina, inoculated 2 days after application, assessed after 4 days incubation, read-out: inhibit fungal infestation
Experimental: Pyrenophora teres (Helminthosporium teres)/Barley/Preventive (Action Against Net Blotch on Barley) 1-week-old barley plants cv. Regina are treated with the formulated test compound in a spray chamber. Two days after application barley plants are inoculated by spraying a spore suspension (2.6×10^4 conidia/ml) on the test plants. After an incubation period of 4 days at 20° C. and 95% r. h. the disease incidence is assessed.

[5] = tested on: Mycosphaerella graminicola (Septoria tritici); assay: Mycosphaerella graminicola (Septoria tritici) / wheat / preventive (action against Septoria leaf spot on wheat); assay type: in vivo; conditions: Zymoseptoria tritici, preventive spray, wheat plants cv. Riband, inoculated 1 day after application, assessed 16-18 days after inoculation, read-out: inhibits fungal infestation
Experimental: Mycosphaerella graminicola (Septoria tritici)/Wheat/Preventive (Action Against Septoria Leaf Spot on Wheat) 2 weeks old wheat plants cv. Riband are treated with the formulated test compound in a spray chamber. One day after application wheat plants are inoculated by spraying a spore suspension (10^6 conidia/ml) on the test plants. After an incubation period of 1 day at 22° C./21° C. and 95% r. h. plants are kept at 22° C./21° C. and 70% r.h. in a greenhouse. The disease incidence is assessed 16-18 days after inoculation.

[6] = tested on: Uncinula necator (Erysiphe necator); assay: Uncinula necator (Erysiphe necator) / grape / preventive (action against powdery mildew on grape); assay type: in vivo; conditions: preventive spray, grape seedlings cv. Gutedel, inoculated 1 day after application, assessed after 7 days incubation, read-out: inhibit fungal infestation
Experimental: Uncinula necator (Erysiphe necator)/Grape/Preventive (Action Against Powdery Mildew on Grape) 5 weeks old grape seedlings cv. Gutedel are treated with the formulated test compound in a spray chamber. One day after application grape plants are inoculated by shaking plants infected with grape powdery mildew above the test plants. After an incubation period of 7 days at 24° C./22° C. and 70% r. h. under a light regime of 14/10 h (light/dark) the disease incidence is assessed.

Structure (SMILES)	inhibition at 200 ppm (Alternaria solani) [%]	inhibition at 200 ppm [1] [%]	inhibition at 200 ppm [2] [%]	inhibition at 200 ppm [3] [%]	inhibition at 200 ppm [4] [%]	inhibition at 200 ppm [5] [%]	inhibition at 200 ppm [6] [%]	melting point [°C]
Cc1nnc(Cl)c(-c2c(F)cccc2Cl)c1-c1ccc(Cl)nc1 [I.a.02, 3-chloro-4-(2-chloro-6-fluoro-phenyl)-5-(6-chloro-pyridin-3-yl)-6-methyl-pyridazine]	≥ 80	≥ 80	≥ 80	≥ 80	≥ 80	≥ 80	≥ 80	
COc1nnc(C)c(-c2ccc(Cl)nc2)c1-c1c(F)cc(F)cc1F [I.a.12, 4-(6-chloro-pyridin-3-yl)-6-methoxy-3-methyl-5-(2,4,6-trifluoro-phenyl)-pyridazine]	≥ 80	≥ 80	≥ 80		≥ 80		≥ 80	123 to 124
CCc1nnc(Cl)c(-c2c(F)cc(F)cc2F)c1-c1ccc(Cl)nc1 [I.a.14, 3-chloro-5-(6-chloro-pyridin-3-yl)-6-ethyl-4-(2,4,6-trifluoro-phenyl)-pyridazine]	≥ 80		≥ 80	≥ 80	≥ 80	≥ 80	≥ 80	125 to 126
CC(C)c1nnc(Cl)c(-c2c(F)cc(F)cc2F)c1-c1ccc(Cl)nc1 [I.a.17, 3-chloro-5-(6-chloro-pyridin-3-yl)-6-isopropyl-4-(2,4,6-trifluoro-phenyl)-pyridazine]								146 to 149
COc1cc(F)c(-c2c(Cl)nnc(C)c2-c2ccc(Cl)nc2)c(F)c1 [I.a.20, 3-chloro-5-(6-chloro-pyridin-3-yl)-4-(2,6-difluoro-4-methoxy-phenyl)-6-methyl-pyridazine]	≥ 80		≥ 80	≥ 80	≥ 80	≥ 80		148 to 149
Cc1nnc(Cl)c(-c2c(F)cc(F)cc2F)c1-c1cnc(Cl)c(Cl)c1 [I.g.11, 3-chloro-5-(5,6-dichloro-pyridin-3-yl)-6-methyl-4-(2,4,6-trifluoro-phenyl)-pyridazine]				≥ 80			≥ 80	185 to 188
